From patent publication US11065253B2, “Arylquinazolines” (Merck Patent GmbH, priority 2013, dated 2021)
Where two headings read alike, the source gives them in different places.

Columns and labels:
[1] = system: phospho-serine 2056 DNA-PK in HCT116 cells; assay: DNA-PK phosphorylation at serine 2056 (cellular), ELISA in bleomycin-treated HCT116 cells; assay type: cell-based; details: bleomycin-treated HCT116 cells, read-out: IC50 pDNA-PK
In short: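 HCT116, MEM alpha + 10% FCS, 37 °C/10% CO2, seeded o/n. Cpd + 10 μM bleomycin, 6 h. ELISA, chemiluminescence; phospho/total DNA-PKcs ratio, DMSO = blank.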

Kv11.1 (hERG) channel = Kv11.1 (hERG) channel (Homo sapiens (Human), UniProt Q12809); assay: Kv11.1 ion channel binding assay (Predictor hERG fluorescence polarisation); details: class symbol marked with asterisk (*)
Experimental: D) Kv11.1 Ion Channel Binding Assay
Kv11.1 (hERG=human ether a go-go related […]) is a cardiac K^+ channel which should if possible not interact with the test substances. This interaction is determined quantitatively with the aid of the Predictor™ hERG Fluorescence Polarizations (FP) Assays from Life Technologies. In the case of this assay principle, cardiomyocyte cell membranes having a certain proportion of Kv11.1 channels are isolated. A dye-labelled Kv11.1 binding partner gives a high fluorescence polarisation signal by interaction with the Kv11.1. In the case of displacement of the dye, a reduction in the fluorescence polarisation signal occurs.
The assay is carried out automatically as follows: 15 nl of the test substances (highest concentration: 10 mM, 10 concentrations: dilution factors 1:3.16, DMSO) are transferred into an empty microtitre plates having 384 wells by means of an acoustic pipetter. 3 μl of the isolated membranes are subsequently added. Membranes and test substances are incubated at 22° C. for 15 min (+/−5 min). In the next step, the dye-labelled binding partner is added, followed by incubation at 22° C. After incubation for two hours, the measurement of the fluorescence polarisation is carried out on an Envision multimode Reader. Measured raw data are standardised with the aid of Genedata Assay Analyzer. The IC50 and % effect values are calculated in Genedata Condoseo.

[2] = Homo sapiens, HCT-116, phospho-serine 2056 DNA-PK

Sequence of Kv11.1 (hERG) channel (Q12809 whole entry): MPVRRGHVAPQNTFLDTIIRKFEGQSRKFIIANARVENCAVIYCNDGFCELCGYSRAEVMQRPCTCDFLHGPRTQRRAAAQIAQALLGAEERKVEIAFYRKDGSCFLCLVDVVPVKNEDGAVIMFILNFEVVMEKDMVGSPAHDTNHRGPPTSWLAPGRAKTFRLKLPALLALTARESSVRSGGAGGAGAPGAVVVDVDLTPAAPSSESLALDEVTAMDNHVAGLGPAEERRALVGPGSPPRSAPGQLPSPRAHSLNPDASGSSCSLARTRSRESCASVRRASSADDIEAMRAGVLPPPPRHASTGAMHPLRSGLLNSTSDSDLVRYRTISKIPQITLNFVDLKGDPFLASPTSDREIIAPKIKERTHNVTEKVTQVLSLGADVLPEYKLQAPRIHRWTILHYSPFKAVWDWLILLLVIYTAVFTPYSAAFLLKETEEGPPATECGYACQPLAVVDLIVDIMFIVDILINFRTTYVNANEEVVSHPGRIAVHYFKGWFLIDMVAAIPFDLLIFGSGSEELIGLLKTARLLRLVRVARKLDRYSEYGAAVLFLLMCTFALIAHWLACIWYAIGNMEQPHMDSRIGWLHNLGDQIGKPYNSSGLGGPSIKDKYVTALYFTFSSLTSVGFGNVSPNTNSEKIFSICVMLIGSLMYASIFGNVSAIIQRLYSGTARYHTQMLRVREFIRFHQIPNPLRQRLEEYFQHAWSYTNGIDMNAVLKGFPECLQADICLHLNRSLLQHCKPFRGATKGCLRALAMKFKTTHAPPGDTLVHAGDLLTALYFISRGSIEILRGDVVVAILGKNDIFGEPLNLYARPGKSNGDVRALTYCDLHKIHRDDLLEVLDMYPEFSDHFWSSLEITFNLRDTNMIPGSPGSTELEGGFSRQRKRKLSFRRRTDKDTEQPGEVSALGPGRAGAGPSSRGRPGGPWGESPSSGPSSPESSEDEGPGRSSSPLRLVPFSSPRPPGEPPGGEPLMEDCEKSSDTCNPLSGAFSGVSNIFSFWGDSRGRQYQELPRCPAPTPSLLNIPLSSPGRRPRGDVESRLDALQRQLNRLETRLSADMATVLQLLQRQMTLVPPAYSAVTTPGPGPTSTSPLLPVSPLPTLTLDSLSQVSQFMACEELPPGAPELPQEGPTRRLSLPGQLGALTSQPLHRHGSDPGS

Structure (SMILES) | IC50 ([1]; phospho-serine 2056 DNA-PK) | Ki [Kv1.11 hERG] (Kv11.1 (hERG) channel) | IC50 [1, 2]
COc1nccnc1C(O)c1ccc(F)c(-c2ncnc3cc(N4CCOCC4)cc(F)c23)c1 (stereo not drawn) [Example 252, [4-Fluoro-3-(5-fluoro-7-morpholin-4-yl-quinazolin-4-yl)-phenyl]-(3-methoxy-pyrazin-2-yl)-methanol] | < 500 nM | A* | –
[2H]C1([2H])OC([2H])([2H])C([2H])([2H])N(c2ccc3c(-c4cc(C(O)c5nccnc5OC)c(Cl)cc4F)ncnc3c2)C1([2H])[2H] (stereo not drawn) [Example 258, [2-Chloro-4-fluoro-5-[7-(2,2,3,3,5,5,6,6-octadeuterio-morpholin-4-yl)-quinazolin-4-yl- ]phenyl]-(3-methoxy-pyrazin-2-yl)-methanol] | < 500 nM | A* | –
Cc1nccnc1C(O)c1ccc(F)c(-c2ncnc3cc(N4CCOCC4)sc23)c1 (stereo not drawn) [Example 265, [4-Fluoro-3-(6-morpholin-4-yl-thieno[3,2-d}-pyrimidin-4-yl)-phenyl]-(3-methyl-pyrazin-2-yl)-methanol] | < 500 nM | A* | –
[2H]C1([2H])OC([2H])([2H])C([2H])([2H])N(c2ccc3c(-c4cc(C(O)c5nccnc5C)ccc4F)ncnc3c2)C1([2H])[2H] (stereo not drawn) [Example 259, [4-Fluoro-3-[7-(2,2,3,3,5,5,6,6-octadeuterio-morpholin-4-yl)quinazolin-4-yl]phenyl]-(3-methyl-pyrazin-2-yl)-methanol] | < 500 nM | A* | –
Cc1nccnc1C(O)c1cc(-c2ncnc3cc(N4CCOCC4)sc23)c(F)cc1Cl (stereo not drawn) [Example 264, [2-Chloro-4-fluoro-5-(6-morpholin-4-yl-thieno[3,2-d}-pyrimidin-4-yl)-phenyl]-(3-methyl-pyrazin-2-yl)-methanol] | – | A* | < 500 nM
CNC(=O)C(c1ccc2nccn2n1)c1cc(-c2ncnc3cc(N4CCOCC4)ccc23)c(F)cc1Cl (stereo not drawn) [Example 236, 2-[2-Chloro-4-fluoro-5-(7-morpholin-4-yl-quinazolin-4-yl)-phenyl]-2-imidazo-[1,2-b]pyridazin-6-yl-N-methylacetamide] | – | A* | 5000 to 10000 nM
Cc1nccnc1C(O)c1ccc(F)c(-c2ncnc3cc(N4CCOCC4)sc23)c1 (stereo not drawn) [Example 245, [4-Fluoro-3-(6-morpholin-4-yl-thieno[3,2-d}-pyrimidin-4-yl)-phenyl]-(3-methyl-pyrazin-2-yl)-methanol] | – | A* | < 500 nM
COc1ccc(C(O)c2ccc(F)c(-c3ncnc4cc(N5CCOCC5)cc(F)c34)c2)nn1 (stereo not drawn) [Example 255, [4-Fluoro-3-(5-fluoro-7-morpholin-4-yl-quinazolin-4-yl)-phenyl]-(6-methoxy-pyridazin-3-yl)-methanol] | – | A* | < 500 nM
COc1ccc(C(O)c2ccc(F)c(-c3ncnc4cc(N5CCOCC5)c(F)cc34)c2)nn1 (stereo not drawn) [Example 282, [4-Fluoro-3-(6-fluoro-7-morpholin-4-yl-quinazolin-4-yl)-phenyl]-(6-methoxy-pyridazin-3-yl)-methanol] | – | A* | 10000 to 30000 nM
COc1nccnc1C(O)c1cc(-c2ncnc3cc(N4CCOCC4)cc(F)c23)c(F)cc1Cl (stereo not drawn) [Example 266, [2-Chloro-4-fluoro-5-(5-fluoro-7-morpholin-4-yl-quinazolin-4-yl)-phenyl]-(3-methoxy-pyrazin-2-yl)-methanol] | < 500 nM | A* | –
Cc1nccnc1C(C(N)=O)c1cc(-c2ncnc3cc(N4CCOCC4)sc23)c(F)cc1Cl (stereo not drawn) [Example 269, 2-[2-Chloro-4-fluoro-5-(6-morpholin-4-yl-thieno[3,2-d}-pyrimidin-4-yl)-phenyl]-2-(3-methyl-pyrazin-2-yl)-acetamide] | – | A* | 500 to 5000 nM
Fc1cc(Cl)c(Cc2ccc3nccn3n2)cc1-c1ncnc2cc(N3CCOCC3)ccc12 [Example 235, 4-(4-Chloro-2-fluoro-5-imidazo[1,2-b]-pyridazin-6-ylmethyl-phenyl)-7-morpholin-4-ylquinazoline] | – | A* | < 500 nM
Cc1nccnc1C(O)c1ccc(F)c(-c2ncnc3cc(N4CCOCC4)cc(F)c23)c1 (stereo not drawn) [Example 268, [4-Fluoro-3-(5-fluoro-7-morpholin-4-yl-quinazolin-4-yl)-phenyl]-(3-methyl-pyrazin-2-yl)-methanol] | – | A* | < 500 nM
COc1ccc(C(O)c2cc(-c3ncnc4cc(N5CCOCC5)cc(F)c34)c(F)cc2Cl)nn1 (single isomer, unassigned) [Example 263, [2-Chloro-4-fluoro-5-(5-fluoro-7-morpholin-4-yl-quinazolin-4-yl)-phenyl]-(6-methoxy-pyridazin-3-yl)-methanol] | – | A* | –
Cc1nccnc1[C@@H](O)c1ccc(F)c(-c2ncnc3cc(N4CCOCC4)cc(F)c23)c1 [Example 251, (S)-[4-fluoro-3-(5-fluoro-7-morpholin-4-ylquinazolin-4-yl)-phenyl]-(3-methyl-pyrazin-2-yl)-methanol] | – | A* | 500 to 5000 nM
COc1ccc(C(O)c2cc(-c3ncnc4cc(N5CCOCC5)cc(F)c34)c(F)cc2Cl)nn1 (stereo not drawn) [Example 278, [2-chloro-4-fluoro-5-(5-fluoro-7-morpholin-4-ylquinazolin-4-yl)phenyl]-(6-methoxypyridazin-3-yl)methanol] | < 500 nM | A* | –
COc1ccc(C(C(N)=O)c2cc(-c3ncnc4cc(N5CCOCC5)sc34)c(F)cc2Cl)nn1 (stereo not drawn) [Example 272, 2-[2-Chloro-4-fluoro-5-(6-morpholin-4-yl-thieno[3,2-d}-pyrimidin-4-yl)-phenyl]-2-(6-methoxy-pyridazin-3-yl)acetamide] | – | A* | 500 to 5000 nM
COc1nnc(Cl)cc1C(O)c1ccc(F)c(-c2ncnc3cc(N4CCOCC4)ccc23)c1 (stereo not drawn) [Example 286, (6-Chloro-3-methoxy-pyridazin-4-yl)-[4-fluoro-3-(7-morpholin-4-yl-quinazolin-4-yl)-phenyl]methanol (Ena 1)] | – | A* | 5000 to 10000 nM
NC(=O)C(c1ccc(F)c(-c2ncnc3cc(N4CCOCC4)ccc23)c1)c1nccn2ncnc12 (stereo not drawn) [Example 280, 2-[4-Fluoro-3-(7-morpholin-4-yl-quinazolin-4-yl)-phenyl]-2-[1,2,4]-triazolo[1,5-a]-pyrazin-8-yl-acetamide] | – | A* | 10000 to 30000 nM
Cc1nccnc1C(C(N)=O)c1ccc(F)c(-c2ncnc3cc(N4CCOCC4)sc23)c1 (stereo not drawn) [Example 270, 2-[4-Fluoro-3-(6-morpholin-4-yl-thieno[3,2-d}-pyrimidin-4-yl)-phenyl]-2-(3-methyl-pyrazin-2-yl)-acetamide] | – | A* | 5000 to 10000 nM
COc1nccnc1C(O)c1cc(-c2ncnc3cc(N4CCOCC4)cc(F)c23)c(F)cc1Cl (stereo not drawn) [Example 249, [2-Chloro-4-fluoro-5-(5-fluoro-7-morpholin-4-yl-quinazolin-4-yl)-phenyl]-(3-methoxy-pyrazin-2-yl)-methanol] | – | A* | < 500 nM
Cc1nccnc1C(O)c1ccc(F)c(-c2ncnc3cc(N4CCOCC4)sc23)c1 (stereo not drawn) [Example 246, [4-Fluoro-3-(6-morpholin-4-yl-thieno[3,2-d}-pyrimidin-4-yl)-phenyl]-(3-methyl-pyrazin-2-yl)-methanol] | – | A* | –
